Test results from US20060193776A1, “Screening methods employing zebrafish and the blood brain barrier” (priority 2004, published 2006).

Legend:
zebrafish = experiment: DMSO tolerance of zebrafish; format: in vivo; conditions: added to the fish water
Source text: Zebrafish are also DMSO (dimethyl sulphoxide) tolerant. This is important as DMSO is used as a solvent to dissolve many drugs. The inventors have established that zebrafish can tolerate 1% DMSO. Thus, a candidate drug or other test substance may be dissolved in DMSO and administered to zebrafish by adding to the fish water to give a final concentration of DMSO of at least up to 1%. This is employed in various preferred aspects and embodiments of the present invention.

[1] = clinical, humans; cited from earlier work
[2] = tested on: blood brain barrier of zebrafish larvae; experiment: Dye exclusion experiments: dye injected into pericardial region, fluorescence intensity in the brain quantified
Procedure: Evans Blue dye (961 Da) was used to investigate the presence of BBB in zebrafish larvae. […] In rodents, Evans Blue leakage is observed following brain trauma.
1) 2% Evans Blue in 0.9% saline was injected into pericardial sac of larvae from 2 days post-fertilisation (d.p.f.) to 1 month old. 0.9% saline was injected as a control.
2) The larvae were left to develop for 6 hours to allow the dye to penetrate from bloodstream into tissues.
3) The larvae were viewed under fluorescent dissecting scope (TRITC filter) to ensure that dye was present in blood vessels.
5) They were embedded in O.C.T. (Optimal Cutting Temperature compound) and 10 μm frozen sections were taken in parasaggital plane.
6) Midline sections were viewed on fluorescent microscope (TRITC filter) at ×40 magnification. Images were taken of Evans Blue injected and saline injected samples.
7) Fluorescent intensity was measured in 3 regions of control and Evans Blue injected samples using AnalySis software. Mean fluorescent intensity was calculated for each age group.
Injection stocks of 2% evans blue in 0.9% saline and a 10% sodium fluorescein in 0.9% saline were prepared and stored at 4° C. Larvae were anaesthetised by immersion in 0.2 mg/ml 3-amino benzoic acid (MS222) prior to being immobilised and oriented in 3% methyl cellulose in embryo medium in a lateral position such that the heart was accessible. Larvae and juveniles from 2 days post-fertilisation (d.p.f.) to 30 d.p.f. were injected into the pericardial region with 0.5 to 2 nl of dye or saline control, depending on age, using standard zebrafish egg microinjection apparatus (Westerfield, 1995). Fish were transferred to fresh embryo medium to recover from anaesthesia, then viewed using a fluorescence dissecting microscope at 1 hour intervals to determine the time of uptake of the dye into the circulation and the time at which dye had permeated from the circulation into non-vascular body tissue. Dye and saline injected larvae were anaesthetised at 4 hours and 6 hours after injection and fixed in 4% paraformaldehyde in PBS. 10 larvae per age group and injection treatment were embedded in Sakura Tissue-Tek OCT Compound (Bayer, Newbury, UK) and frozen parasagittal sections were cut at 10 μm thickness.
Sections were visualised without mounting medium by fluorescence microscopy on an Olympus BX51 microscope. Three midline sagittal sections from each larva were identified and images were captured using a ColorView camera (Olympus) and AnalySis software (Soft Imaging System). The fluorescence intensity within the brain was quantified for each midline section of each larva in each treatment group using colour threshold and area measurements in AnalySis. Mean values, standard deviations and T-tests were calculated using Excel software (Microsoft Office).

[3] = rodents; cited from earlier work
[4] = mammals; cited from earlier work

Molecule: C[S+](C)[O-] [DMSO, dimethyl sulphoxide]
- concentration tolerated by zebrafish (zebrafish): 1%

Molecule: O=C(O)COCCN1CCN(C(c2ccccc2)c2ccc(Cl)cc2)CC1 (stereo not drawn) [cetirizine]
- sedating or non-sedating antihistamine [1]: non-sedating

Molecule: OCCOCCN1CCN(C(c2ccccc2)c2ccc(Cl)cc2)CC1 (stereo not drawn) [hydroxyzine]
- sedating or non-sedating antihistamine [1]: sedating

Molecule: Cc1ccc(/C(=C\CN2CCCC2)c2ccccn2)cc1 [triprolidine]
- sedating or non-sedating antihistamine [1]: sedating

Molecule: CCOC(=O)N1CCC(=C2c3ccc(Cl)cc3CCc3cccnc32)CC1 [loratadine]
- sedating or non-sedating antihistamine [1]: non-sedating

Molecule: Cc1cc(-c2ccc(/N=N/c3ccc4c(S(=O)(=O)O)cc(S(=O)(=O)O)c(N)c4c3O)c(C)c2)ccc1/N=N/c1ccc2c(S(=O)(=O)O)cc(S(=O)(=O)O)c(N)c2c1O [Evans Blue]
- fluorescence in the brain ([2]; 3 d.p.f., dye injected into pericardial sac, 6 hours): High level of fluorescence in the brain
- brain fluorescence compared with saline injected samples ([2]; 5 d.p.f., dye injected into pericardial sac, 6 hours): no different from saline injected samples
- change of fluorescent intensity in the brain with age ([2]; FIG. 2, days post-fertilisation): age dependent decrease
- day from which excluded from the brain ([2]; peripheral injection): 5 days
- exclusion from the brain [3]: excluded from the brain if the BBB is intact

Molecule: Clc1ccc2c(c1)CCc1cccnc1C2=C1CCNCC1 [desloratadine]
- crosses the BBB [4]: does not cross the BBB

Molecule: rhodamine 123
- age at which fluorescent intensity in the brain decreases sharply (exclusion from the brain) ([2]; zebrafish, in vivo): 8 d.p.f.

Molecule: O=C([O-])c1ccccc1-c1c2ccc(=O)cc-2oc2cc([O-])ccc12.[Na+].[Na+] [sodium fluorescein]
- day from which excluded from the brain ([2]; peripheral injection): 10 days
- day until which it permeates into the brain ([2]; peripheral injection): 8 days
- age at which fluorescent intensity in the brain decreases sharply (exclusion from the brain) ([2]; peripheral injection, versus saline controls): 10 d.p.f.
